Measured values published in patent US7884118B2, “1-cycloalkyl-5-iodotetrazoles” (LANXESS Deutschland GmbH, priority 2005, dated 2011).

Key:
Penicillium brevicaule = experiment: Minimum inhibitory concentration (MIC) against fungi, malt extract agar; type: cell-based; conditions: 336 h, 2 weeks at 28° C., 60 to 70% relative atmospheric humidity, read-out: Minimum inhibitory concentrations Penicillium brevicaule
Method: (§1) In each case, the active compounds according to the invention, in concentrations of from 0.1 mg/l to 5000 mg/l, were added to an agar which had been prepared using malt extracts. The MIC was determined after 2 weeks of storage at 28° C. and 60 to 70% relative atmospheric humidity. The MIC is the lowest concentration of active compound at which there is no colonization by the microbial species used.

Chaetomium globosum = experiment: as above; type: cell-based; conditions: 336 h, 2 weeks at 28° C., 60 to 70% relative atmospheric humidity, read-out: Minimum inhibitory concentrations Chaetomium globosum
Method: as §1

Aspergillus niger = experiment: as above; type: cell-based; conditions: 336 h, 2 weeks at 28° C., 60 to 70% relative atmospheric humidity, read-out: Minimum inhibitory concentrations Aspergillus niger
Method: as §1

MIC (Penicillium brevicaule): < 20 µg/mL
MIC (Chaetomium globosum): < 20 µg/mL
MIC (Aspergillus niger): < 20 µg/mL
melting point: 119 °C
SMILES: Ic1nnnn1C1CCCC1 [Example 1, 1-Cyclopentyl-5-iodotetrazole]
